In the first test the target is T1, viral kinase pUL-97 (Human cytomegalovirus, UniProt P16788).
T1 construct: The pUL-97 gene was cloned into a baculovirus vector; GST (glutathione S-transferase) (N); made in house; host or cells: Sf9 insect cells, baculovirus
T1 sequence (P16788 whole entry): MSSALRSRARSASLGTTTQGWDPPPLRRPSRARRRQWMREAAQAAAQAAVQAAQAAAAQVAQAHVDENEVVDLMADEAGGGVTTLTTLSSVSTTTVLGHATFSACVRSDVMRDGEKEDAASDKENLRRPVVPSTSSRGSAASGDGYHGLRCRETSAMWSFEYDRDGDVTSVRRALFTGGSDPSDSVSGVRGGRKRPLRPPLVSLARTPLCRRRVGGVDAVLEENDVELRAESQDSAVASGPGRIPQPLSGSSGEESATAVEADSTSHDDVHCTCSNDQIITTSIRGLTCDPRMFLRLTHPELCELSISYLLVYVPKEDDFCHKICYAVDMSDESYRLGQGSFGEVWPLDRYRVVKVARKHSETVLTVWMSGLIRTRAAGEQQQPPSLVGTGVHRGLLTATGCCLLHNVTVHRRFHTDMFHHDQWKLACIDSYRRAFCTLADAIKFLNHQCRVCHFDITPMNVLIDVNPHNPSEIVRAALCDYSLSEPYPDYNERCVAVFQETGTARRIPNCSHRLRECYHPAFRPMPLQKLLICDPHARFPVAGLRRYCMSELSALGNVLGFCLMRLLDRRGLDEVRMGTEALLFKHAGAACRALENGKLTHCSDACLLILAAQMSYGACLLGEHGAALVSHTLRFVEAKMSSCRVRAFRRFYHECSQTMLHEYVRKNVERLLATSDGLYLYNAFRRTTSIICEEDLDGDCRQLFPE
The test can be described thus: UL97 kinase assay on Immobilon plate. Conditions: inhibition of UL 97 kinase activity; class by IC50 / % inhibition at 10 μM or 100 μM; read-out: Activity Class [A, B, C]. The test is classed as biochemical. Put shortly:
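Compound was titrated into a radiometric reaction of Sf9-expressed GST-UL97 kinase, incubated 1 h at 30 °C in Tris-HCl pH 7.5/MnCl2/DTT buffer before EDTA stop. MBP substrate and ATP (3 μM in the added assay buffer) were supplied with γ-[33P]ATP. Labelled product bound to Immobilon filter was washed and counted by scintillation.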
Take `CSc1ccc(-c2cncc(N3CCC(c4ccccc4)CC3)n2)cc1` [compound 361, 2-(4-Methylsulfanyl-phenyl)-6-(4-phenyl-piperidin-1-yl)-pyrazine]: the IC50 fell in the range of 1 to 10 µM.
The same measure, in the same setting: the value for `Fc1cc(-c2cncc(N3CCN(c4cnccn4)CC3)n2)ccc1-c1ccccc1` [compound 334, 6-(2-Fluoro-biphenyl-4-yl)-2′,3′,5′,6′-tetrahydro-[2,1′;4′,2″]terpyrazine] was 10 to 100 µM.
Same read-out and setting: for `COc1cccc(N2CCN(c3cncc(-c4ccc(F)cc4)n3)CC2)c1` [compound 367, 6′-(4-Fluoro-phenyl)-4-(3-methoxy-phenyl)-3,4,5,6-tetrahydro-2H-[1,2′]bipyrazinyl] the value was 1 to 10 µM; for `Cc1cccc(-c2cncc(N3CCN(c4ccccc4)CC3)n2)c1` [compound 244, 4-Phenyl-6′-m-tolyl-3,4,5,6-tetrahydro-2H-[1,2′]bipyrazinyl], 10 to 100 µM; for `COc1ccc(N2CCN(c3cncc(-c4cccc(C)c4C)n3)CC2)cc1OC` [compound 226, 4-(3,4-Dimethoxy-phenyl)-6′-(2,3-dimethyl-phenyl)-3,4,5,6-tetrahydro-2H-[1,2′]bipyrazinyl], 10 to 100 µM.
Still for that read-out and setting: the value for `Cc1cccc(N2CCN(c3cncc(-c4csc5ccccc45)n3)CC2C)c1` (stereo not shown) [compound 279, 6′-Benzo[b]thiophen-3-yl-3-methyl-4-m-tolyl-3,4,5,6-tetrahydro-2H-[1,2′]bipyrazinyl] was 10 to 100 µM; that for `CC(=O)c1ccc(N2CCN(c3cncc(-c4ccc(F)cc4)n3)CC2)cc1` [compound 276, 1-{4-[6′-(4-Fluoro-phenyl)-2,3,5,6-tetrahydro-[1,2′]bipyrazinyl-4-yl]-phenyl}-ethanone] was 1 to 10 µM; that for `COc1ccc(-c2cncc(N3CCN(c4ccccn4)CC3)n2)cc1OC` [compound 306, 6′-(3,4-Dimethoxy-phenyl)-4-pyridin-2-yl-3,4,5,6-tetrahydro-2H-[1,2′]bipyrazinyl] was 1 to 10 µM.
Regarding `COc1cccc(N2CCN(c3cncc(-c4ccc(C)cc4)n3)CC2)c1` [compound 284, 4-(3-Methoxy-phenyl)-6′-p-tolyl-3,4,5,6-tetrahydro-2H-[1,2′]bipyrazinyl], the IC50 was 1 to 10 µM.
Same read-out and setting: the value for `COc1ccc(-c2cncc(N3CCN(c4ccc(C)cc4C)CC3)n2)cc1OC` [compound 288] was 10 to 100 µM; that for `Cc1ccccc1-c1cncc(N2CCN(c3ccncc3)CC2)n1` [compound 256, 4-Pyridin-4-yl-6′-o-tolyl-3,4,5,6-tetrahydro-2H-[1,2′]bipyrazinyl] was 10 to 100 µM; that for `Cc1cccc(-c2cncc(N3CCN(c4ccccn4)CC3)n2)c1` [compound 327, 4-Pyridin-2-yl-6′-m-tolyl-3,4,5,6-tetrahydro-2H-[1,2′]bipyrazinyl] was 10 to 100 µM.
Same read-out and setting: for `COc1ccc(-c2cncc(N3CCN(c4ccc(C)cc4)CC3)n2)cc1F` [compound 265, 6′-(3-Fluoro-4-methoxy-phenyl)-4-p-tolyl-3,4,5,6-tetrahydro-2H-[1,2′]bipyrazinyl] the value was 10 to 100 µM; for `CN(C)c1ccc(-c2cncc(N3CCN(c4ccc(Cl)c(Cl)c4)CC3)n2)cc1` [compound 357, {4-[4-(3,4-Dichloro-phenyl)-3,4,5,6-tetrahydro-2H-[1,2′]bipyrazinyl-6′-yl]-phenyl}-dimethyl-amine], 10 to 100 µM.
For the compound `CN(C)c1ccc(-c2cncc(N3CCN(c4cnccn4)CC3)n2)cc1` [compound 343, Dimethyl-[4-(2′,3′,5′,6′-tetrahydro-[2,1′;4′,2″]terpyrazin-6-yl)-phenyl]-amine], the IC50 was 1 to 10 µM.
Same read-out and setting: for `COc1ccc(-c2cncc(N3CCC(c4ccccc4)CC3)n2)cc1F` [compound 278, 2-(3-Fluoro-4-methoxy-phenyl)-6-(4-phenyl-piperidin-1-yl)-pyrazine] the value was 10 to 100 µM; for `COc1ccc(N2CCN(c3cncc(-c4cc5ccccc5s4)n3)CC2)cc1` [compound 292, 6′-Benzo[b]thiophen-2-yl-4-(4-methoxy-phenyl)-3,4,5,6-tetrahydro-2H-[1,2′]bipyrazinyl], 1 to 10 µM; for `CSc1ccc(-c2cncc(N3CCN(c4ccc(C(F)(F)F)cc4)CC3)n2)cc1` [compound 311, 6′-(4-Methylsulfanyl-phenyl)-4-(4-trifluoromethyl-phenyl)-3,4,5,6-tetrahydro-2H-[1,2′]bipyrazinyl], 1 to 10 µM.
For the compound `Cc1ccc(-c2cncc(N3CCN(c4ccncc4)CC3)n2)cc1` [compound 220, 4-Pyridin-4-yl-6′-p-tolyl-3,4,5,6-tetrahydro-2H-[1,2′]bipyrazinyl], the IC50 was 1 to 10 µM.
Still for that read-out and setting: the value for `Cc1ccc(-c2cncc(N3CCN(c4ccc(C)cc4)CC3)n2)cc1` [compound 229, 4,6′-Di-p-tolyl-3,4,5,6-tetrahydro-2H-[1,2′]bipyrazinyl] was 10 to 100 µM; that for `FC(F)(F)c1ccc(N2CCN(c3cncc(-c4ccoc4)n3)CC2)cc1` [compound 353, 6′-Furan-3-yl-4-(4-trifluoromethyl-phenyl)-3,4,5,6-tetrahydro-2H-[1,2′]bipyrazinyl] was 10 to 100 µM; that for `COc1ccc(N2CCN(c3cncc(-c4ccc(C(N)=O)cc4)n3)CC2)cc1` [compound 290, 4-[4-(4-Methoxy-phenyl)-3,4,5,6-tetrahydro-2H-[1,2′]bipyrazinyl-6′-yl]-benzamide] was less than 1 µM.

Staying with this test, now noted: inhibition of UL 97 kinase activity; class by IC50 / % inhibition at 10 or 100 μM; read-out: Activity Class [A, B, C].
Turning to `Fc1cccc(-c2cncc(N3CCN(c4ccccc4)CC3)n2)c1` [compound 194, 6′-(3-Fluoro-phenyl)-4-phenyl-3,4,5,6-tetrahydro-2H-[1,2′]bipyrazinyl], the IC50 lay within 10 to 100 µM.
On the same count and under the same terms, for `Cc1cc(C)cc(-c2cncc(N3CCN(c4ccccc4)CC3)n2)c1` [compound 192, 6′-(3,5-Dimethyl-phenyl)-4-phenyl-3,4,5,6-tetrahydro-2H-[1,2′]bipyrazinyl] the value was 10 to 100 µM; for `Fc1ccccc1N1CCN(c2cncc(-c3ccc4ccccc4c3)n2)CC1` [compound 123, 4-(2-Fluoro-phenyl)-6′-naphthalen-2-yl-3,4,5,6-tetrahydro-2H-[1,2′]bipyrazinyl], 1 to 10 µM; for `COc1ccc(N2CCN(c3cncc(-c4cccc(C#N)c4)n3)CC2)cc1OC` [compound 173, 3-[4-(3,4-Dimethoxy-phenyl)-3,4,5,6-tetrahydro-2H-[1,2′]bipyrazinyl-6′-yl]-benzonitrile], 10 to 100 µM.
On the same count and under the same terms, for `CSc1ccccc1-c1cncc(N2CCN(c3ccncc3)CC2)n1` [compound 166, 6′-(2-Methylsulfanyl-phenyl)-4-pyridin-4-yl-3,4,5,6-tetrahydro-2H-[1,2′]bipyrazinyl] the value was 10 to 100 µM.
On to “6′-(4-Methylsulfanyl-phenyl)-4-pyridin-4-yl-3,4,5,6-tetrahydro-2H-[1,2′]bipyrazinyl [compound 66]”, for which the IC50 is 1 to 10 µM.
On the same count and under the same terms, the value for `Fc1ccc(N2CCN(c3cncc(-c4cccc(F)c4)n3)CC2)cc1` [compound 181, 4-(4-Fluoro-phenyl)-6′-(3-fluoro-phenyl)-3,4,5,6-tetrahydro-2H-[1,2′]bipyrazinyl] was 10 to 100 µM; that for `c1ccc(-c2cncc(N3CCN(c4ccccc4)CC3)n2)cc1` [compound 109, 4,6′-Diphenyl-3,4,5,6-tetrahydro-2H-[1,2′]bipyrazinyl] was 1 to 10 µM.
Same read-out and setting: for `CC(=O)c1ccc(N2CCN(c3cncc(-c4cccc(C)c4)n3)CC2)cc1` [compound 147, 1-[4-(6′-m-Tolyl-2,3,5,6-tetrahydro-[1,2′]bipyrazinyl-4-yl)-phenyl]-ethanone] the value was 10 to 100 µM; for `Cc1ccc(-c2cncc(N3CCN(c4ccc(F)cc4F)CC3)n2)cc1` [compound 142, 4-(2,4-Difluoro-phenyl)-6′-p-tolyl-3,4,5,6-tetrahydro-2H-[1,2′]bipyrazinyl], 10 to 100 µM.
As for `CCCNc1cncc(-c2ccc(C(N)=O)cc2)n1` [compound 25, 4-(6-Propylamino-pyrazin-2-yl)-benzamide], the IC50 is less than 1 µM.
On the same count and under the same terms, the value for `COc1ccc(N2CCN(c3cncc(-c4ccc(C(F)(F)F)cc4)n3)CC2)cc1OC` [compound 172, 4-(3,4-Dimethoxy-phenyl)-6′-(4-trifluoromethyl-phenyl)-3,4,5,6-tetrahydro-2H-[1,2′]bipyrazinyl] was 1 to 10 µM; that for `COc1cccc(-c2cncc(N3CCN(c4cccc(Cl)c4)CC3)n2)c1OC` [compound 183, 4-(3-Chloro-phenyl)-6′-(2,3-dimethoxy-phenyl)-3,4,5,6-tetrahydro-2H-[1,2′]bipyrazinyl] was 10 to 100 µM; that for `NC(=O)c1ccc(-c2cncc(N3CCN(c4cccc(Cl)c4)CC3)n2)cc1` [compound 89, 4-[4-(3-Chloro-phenyl)-3,4,5,6-tetrahydro-2H-[1,2′]bipyrazinyl-6′-yl]-benzamide] was 1 to 10 µM.
Same read-out and setting: the value for `COc1cc(-c2cncc(N3CCN(c4cccc5[nH]ccc45)CC3)n2)cc(OC)c1OC` [compound 37, 4-(1H-Indol-4-yl)-6′-(3,4,5-trimethoxy-phenyl)-3,4,5,6-tetrahydro-2H-[1,2′]bipyrazinyl] was 10 to 100 µM.
Regarding `NC(=O)c1ccc(-c2cncc(N3CCN(c4ccncc4)CC3)n2)cc1` [Comp. 21, 4-(4-Pyridin-4-yl-3,4,5,6-tetrahydro-2H-[1,2′]bipyrazinyl-6′-yl)-benzamide], the IC50 was less than 1 µM.
As for `COc1ccccc1N1CCN(c2cncc(-c3ccsc3)n2)CC1` [compound 85, 4-(2-Methoxy-phenyl)-6′-thiophen-3-yl-3,4,5,6-tetrahydro-2H-[1,2′]bipyrazinyl], the IC50 fell in the range of 10 to 100 µM.
Still for that read-out and setting: the value for `OCc1ccc(-c2cncc(N3CCN(c4ccccc4)CC3)n2)cc1` [compound 117, [4-(4-Phenyl-3,4,5,6-tetrahydro-2H-[1,2′]bipyrazinyl-6′-yl)-phenyl]-methanol] was 1 to 10 µM.

Source of the values: patent US20080194574A1, “Pyrazine Derivatives As Effective Compounds Against Infectious Diseases” (AXXIMA PHARMACEUTICALS AG, priority 2003, published 2008).
